Measured values taken from PMC10477891, “Celastrol Combats Methicillin‐Resistant Staphylococcus aureus by Targeting Δ^1‐Pyrroline‐5‐Carboxylate Dehydrogenase” (Advanced Science, 2023).

Tests used:
[1] = target: T1, P5CDH (Δ1-pyrroline-5-carboxylate dehydrogenase) (Staphylococcus aureus, UniProt Q2FDV3); experiment: P5CDH activity kit (FT-M52211); format: biochemical
T1 construct: gene rocA
T1 sequence (Q2FDV3 1-514): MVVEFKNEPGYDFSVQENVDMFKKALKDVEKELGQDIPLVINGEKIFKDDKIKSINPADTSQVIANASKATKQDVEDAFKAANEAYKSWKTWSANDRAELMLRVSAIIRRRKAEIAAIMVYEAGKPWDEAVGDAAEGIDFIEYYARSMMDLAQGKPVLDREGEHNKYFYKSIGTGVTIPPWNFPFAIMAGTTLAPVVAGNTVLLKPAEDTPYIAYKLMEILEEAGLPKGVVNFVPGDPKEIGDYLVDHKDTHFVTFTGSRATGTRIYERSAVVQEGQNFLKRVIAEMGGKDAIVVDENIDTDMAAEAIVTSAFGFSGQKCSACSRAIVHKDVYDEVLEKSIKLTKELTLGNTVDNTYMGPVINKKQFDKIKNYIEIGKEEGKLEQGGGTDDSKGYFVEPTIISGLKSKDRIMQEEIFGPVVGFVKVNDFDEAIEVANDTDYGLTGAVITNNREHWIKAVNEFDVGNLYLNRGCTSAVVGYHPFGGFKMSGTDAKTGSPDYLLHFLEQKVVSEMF

[2] = target: T1, P5CDH (Δ1-pyrroline-5-carboxylate dehydrogenase); experiment: bio-layer interferometry (Octet NTA, immobilised P5CDH); format: binding

**Q.** `CC1=C(O)C(=O)C=C2C1=CC=C1[C@@]2(C)CC[C@@]2(C)[C@@H]3C[C@](C)(C(=O)O)CC[C@]3(C)CC[C@]12C` [celastrol] was tested. Which IC50 [1] did it give?
**A.** 10.9 µM

**Q.** And the Kd [2]?
**A.** 55 µM
